Drawing on ChEMBL document CHEMBL5291721, “A preclinical secondary pharmacology resource illuminates target-adverse drug reaction associations of marketed drugs” (Nat Commun, 2023), this text covers AC50 for 3 compounds.

In one assay the target is Vasopressin V2 receptor (Homo sapiens, UniProt P30518).
Assay [1] addresses Growth hormone secretagogue receptor type 1 (Homo sapiens, UniProt Q92847).
Assay [2] addresses 3',5'-cyclic-AMP phosphodiesterase 4D (Homo sapiens, UniProt Q08499). The format is functional.
For assay [3], the target named is Glutamate receptor ionotropic, NMDA 1 (Rattus norvegicus, UniProt P35439).
The target in assay [4] is Voltage-gated inwardly rectifying potassium channel KCNH2 (Homo sapiens, UniProt Q12809). It counts as functional.
Voltage-gated inwardly rectifying potassium channel KCNH2, sequence (Q12809 whole entry): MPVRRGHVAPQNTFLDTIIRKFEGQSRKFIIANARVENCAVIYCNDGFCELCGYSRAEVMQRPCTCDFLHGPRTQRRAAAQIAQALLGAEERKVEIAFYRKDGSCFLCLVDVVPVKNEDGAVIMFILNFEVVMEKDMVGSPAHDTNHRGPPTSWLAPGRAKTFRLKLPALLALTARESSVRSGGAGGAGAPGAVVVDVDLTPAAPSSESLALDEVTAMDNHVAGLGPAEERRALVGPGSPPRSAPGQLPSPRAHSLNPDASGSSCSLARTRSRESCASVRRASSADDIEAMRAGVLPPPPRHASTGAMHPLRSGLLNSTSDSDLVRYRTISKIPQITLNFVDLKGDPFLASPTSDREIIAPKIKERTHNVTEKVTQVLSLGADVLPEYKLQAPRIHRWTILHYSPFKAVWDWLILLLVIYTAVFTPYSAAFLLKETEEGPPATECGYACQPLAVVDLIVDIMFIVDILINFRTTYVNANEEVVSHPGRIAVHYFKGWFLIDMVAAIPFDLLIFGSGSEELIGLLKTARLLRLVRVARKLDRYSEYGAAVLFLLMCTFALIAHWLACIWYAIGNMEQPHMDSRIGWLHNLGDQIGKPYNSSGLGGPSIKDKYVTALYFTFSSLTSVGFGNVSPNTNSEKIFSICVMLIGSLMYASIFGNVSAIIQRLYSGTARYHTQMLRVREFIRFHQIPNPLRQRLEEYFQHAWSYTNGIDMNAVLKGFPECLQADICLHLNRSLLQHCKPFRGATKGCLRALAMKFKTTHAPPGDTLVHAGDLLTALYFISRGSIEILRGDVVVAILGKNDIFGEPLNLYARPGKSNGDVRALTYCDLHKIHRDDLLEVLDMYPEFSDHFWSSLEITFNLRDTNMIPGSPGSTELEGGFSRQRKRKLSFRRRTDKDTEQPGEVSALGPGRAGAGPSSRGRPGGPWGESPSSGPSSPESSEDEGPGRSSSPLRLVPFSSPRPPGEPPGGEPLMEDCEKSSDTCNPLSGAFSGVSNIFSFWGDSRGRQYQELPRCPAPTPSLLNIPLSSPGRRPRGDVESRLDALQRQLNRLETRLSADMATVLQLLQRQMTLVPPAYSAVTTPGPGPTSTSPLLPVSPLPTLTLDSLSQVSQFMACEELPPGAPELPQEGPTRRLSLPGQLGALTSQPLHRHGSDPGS
The target of assay [5] is Beta-1 adrenergic receptor (Homo sapiens, UniProt P08588). It counts as functional.
Beta-1 adrenergic receptor, sequence (P08588 whole entry): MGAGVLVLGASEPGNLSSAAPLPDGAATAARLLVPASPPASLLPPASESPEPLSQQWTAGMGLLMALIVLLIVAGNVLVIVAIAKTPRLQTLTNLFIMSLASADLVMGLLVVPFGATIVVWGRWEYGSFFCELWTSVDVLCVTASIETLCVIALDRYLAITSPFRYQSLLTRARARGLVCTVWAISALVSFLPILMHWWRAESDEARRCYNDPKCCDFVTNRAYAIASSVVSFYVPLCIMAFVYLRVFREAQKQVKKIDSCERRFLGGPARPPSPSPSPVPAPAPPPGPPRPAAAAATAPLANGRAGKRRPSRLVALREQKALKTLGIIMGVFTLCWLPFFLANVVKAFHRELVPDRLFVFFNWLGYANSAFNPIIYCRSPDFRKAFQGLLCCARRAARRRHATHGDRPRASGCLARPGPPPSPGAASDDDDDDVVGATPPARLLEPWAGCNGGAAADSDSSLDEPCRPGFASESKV
Assay [6] concerns the target T1, Muscarinic acetylcholine receptor M2 (Homo sapiens, UniProt P08172).
T1 sequence (P08172 whole entry): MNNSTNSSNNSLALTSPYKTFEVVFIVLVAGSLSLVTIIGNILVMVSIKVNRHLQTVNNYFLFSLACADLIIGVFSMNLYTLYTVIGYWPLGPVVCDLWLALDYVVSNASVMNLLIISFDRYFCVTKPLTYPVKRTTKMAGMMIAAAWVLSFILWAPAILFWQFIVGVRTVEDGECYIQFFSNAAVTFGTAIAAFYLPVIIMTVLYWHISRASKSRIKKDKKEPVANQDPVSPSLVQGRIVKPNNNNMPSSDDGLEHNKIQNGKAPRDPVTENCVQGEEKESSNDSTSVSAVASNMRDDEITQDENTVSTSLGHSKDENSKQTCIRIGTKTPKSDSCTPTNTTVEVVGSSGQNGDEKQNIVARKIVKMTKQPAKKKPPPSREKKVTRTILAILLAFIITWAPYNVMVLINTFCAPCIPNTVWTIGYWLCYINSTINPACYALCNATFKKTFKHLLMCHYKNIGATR
It counts as functional, cell-based.

The target of assay [7] is T2, Alpha-2A adrenergic receptor (Homo sapiens, UniProt P08913).
T2 sequence (P08913 whole entry): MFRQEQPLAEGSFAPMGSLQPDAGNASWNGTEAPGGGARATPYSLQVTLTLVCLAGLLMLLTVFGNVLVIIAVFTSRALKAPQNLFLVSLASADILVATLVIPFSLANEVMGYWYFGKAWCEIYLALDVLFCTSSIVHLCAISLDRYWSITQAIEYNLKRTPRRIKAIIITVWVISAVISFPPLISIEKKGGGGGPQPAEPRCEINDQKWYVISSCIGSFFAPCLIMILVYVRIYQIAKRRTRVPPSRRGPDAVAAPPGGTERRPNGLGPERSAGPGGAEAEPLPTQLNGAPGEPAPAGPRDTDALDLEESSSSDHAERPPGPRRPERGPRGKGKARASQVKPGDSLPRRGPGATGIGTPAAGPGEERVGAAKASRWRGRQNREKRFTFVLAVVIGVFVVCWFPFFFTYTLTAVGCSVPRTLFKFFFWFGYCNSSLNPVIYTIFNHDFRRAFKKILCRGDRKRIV
It counts as functional, cell-based.

For assay [8], the target named is Delta-type opioid receptor (Homo sapiens, UniProt P41143).
Delta-type opioid receptor, sequence (P41143 whole entry): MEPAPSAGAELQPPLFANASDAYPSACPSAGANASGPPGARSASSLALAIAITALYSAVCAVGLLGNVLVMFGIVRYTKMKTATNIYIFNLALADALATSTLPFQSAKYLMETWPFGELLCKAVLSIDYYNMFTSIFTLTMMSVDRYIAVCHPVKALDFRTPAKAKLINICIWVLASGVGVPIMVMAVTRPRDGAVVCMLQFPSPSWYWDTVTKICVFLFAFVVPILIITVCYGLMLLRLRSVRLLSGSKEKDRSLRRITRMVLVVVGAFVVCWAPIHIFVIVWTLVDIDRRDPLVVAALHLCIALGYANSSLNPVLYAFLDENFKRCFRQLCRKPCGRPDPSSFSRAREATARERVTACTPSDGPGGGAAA
Assay [9] deals with 5-hydroxytryptamine receptor 2B (Homo sapiens, UniProt P41595). The format is functional, cell-based.
5-hydroxytryptamine receptor 2B, sequence (P41595 whole entry): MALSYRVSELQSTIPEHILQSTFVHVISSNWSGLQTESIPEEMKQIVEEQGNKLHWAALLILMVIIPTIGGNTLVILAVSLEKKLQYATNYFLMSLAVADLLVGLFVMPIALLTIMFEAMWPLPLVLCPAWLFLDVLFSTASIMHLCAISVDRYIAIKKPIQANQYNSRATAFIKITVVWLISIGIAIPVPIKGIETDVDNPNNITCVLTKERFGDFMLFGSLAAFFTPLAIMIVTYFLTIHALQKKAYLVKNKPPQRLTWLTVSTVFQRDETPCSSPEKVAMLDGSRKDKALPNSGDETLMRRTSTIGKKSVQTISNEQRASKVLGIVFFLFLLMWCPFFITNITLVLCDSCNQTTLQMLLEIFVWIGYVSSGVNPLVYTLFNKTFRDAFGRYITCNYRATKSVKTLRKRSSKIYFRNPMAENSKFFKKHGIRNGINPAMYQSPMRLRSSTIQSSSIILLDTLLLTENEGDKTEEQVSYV
Assay [10] deals with T1, Muscarinic acetylcholine receptor M2. The format is functional, cell-based. This is another data set of the same source.
Assay [11] has as its target T3, Cholecystokinin receptor type A (Homo sapiens, UniProt P32238).
T3 sequence (P32238 whole entry): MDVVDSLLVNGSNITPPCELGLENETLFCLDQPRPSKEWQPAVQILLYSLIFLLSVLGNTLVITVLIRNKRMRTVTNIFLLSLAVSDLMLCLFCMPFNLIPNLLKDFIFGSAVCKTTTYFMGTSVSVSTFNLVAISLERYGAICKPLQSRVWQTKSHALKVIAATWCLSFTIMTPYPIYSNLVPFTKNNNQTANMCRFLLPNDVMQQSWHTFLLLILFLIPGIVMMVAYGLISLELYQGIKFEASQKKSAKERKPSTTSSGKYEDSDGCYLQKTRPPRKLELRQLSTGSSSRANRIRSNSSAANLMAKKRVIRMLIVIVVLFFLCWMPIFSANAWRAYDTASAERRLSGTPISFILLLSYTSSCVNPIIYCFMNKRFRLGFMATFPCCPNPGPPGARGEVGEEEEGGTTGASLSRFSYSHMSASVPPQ

Assay [12] concerns the target T4, Equilibrative nucleoside transporter 1 (Homo sapiens, UniProt Q99808).
T4 sequence (Q99808 whole entry): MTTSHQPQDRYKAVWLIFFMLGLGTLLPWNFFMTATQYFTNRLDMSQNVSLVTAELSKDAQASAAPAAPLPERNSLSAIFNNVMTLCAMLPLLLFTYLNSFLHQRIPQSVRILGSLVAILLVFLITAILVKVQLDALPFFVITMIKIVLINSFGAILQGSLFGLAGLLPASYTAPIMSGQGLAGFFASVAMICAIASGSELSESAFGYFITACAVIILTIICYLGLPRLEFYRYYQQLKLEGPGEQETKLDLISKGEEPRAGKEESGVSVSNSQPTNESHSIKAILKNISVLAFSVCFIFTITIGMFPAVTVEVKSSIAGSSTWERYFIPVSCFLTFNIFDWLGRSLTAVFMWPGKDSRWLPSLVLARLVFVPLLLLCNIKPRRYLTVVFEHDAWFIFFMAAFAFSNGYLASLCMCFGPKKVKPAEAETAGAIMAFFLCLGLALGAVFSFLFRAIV

The target in assay [13] is Gamma-aminobutyric acid receptor subunit alpha-1 (Rattus norvegicus, UniProt P62813).
Gamma-aminobutyric acid receptor subunit alpha-1, sequence (P62813 whole entry): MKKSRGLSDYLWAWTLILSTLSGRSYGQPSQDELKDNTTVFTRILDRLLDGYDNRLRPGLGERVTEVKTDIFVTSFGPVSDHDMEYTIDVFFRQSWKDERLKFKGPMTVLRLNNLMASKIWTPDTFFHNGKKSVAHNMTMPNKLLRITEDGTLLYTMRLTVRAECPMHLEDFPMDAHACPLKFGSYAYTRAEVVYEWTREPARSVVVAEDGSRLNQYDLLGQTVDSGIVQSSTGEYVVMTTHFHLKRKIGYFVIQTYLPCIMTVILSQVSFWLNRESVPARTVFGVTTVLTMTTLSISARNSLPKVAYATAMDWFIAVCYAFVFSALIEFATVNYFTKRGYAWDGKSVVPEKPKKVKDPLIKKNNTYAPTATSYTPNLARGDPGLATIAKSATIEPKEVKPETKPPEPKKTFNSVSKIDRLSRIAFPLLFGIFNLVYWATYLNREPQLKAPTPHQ

Structures are written as SMILES.

Broadly, the AC50 is the midpoint of the concentration-response curve, whichever way the signal moves.
Further: assay procedure not described here.

3',5'-cyclic-AMP phosphodiesterase 4D, sequence (Q08499 whole entry): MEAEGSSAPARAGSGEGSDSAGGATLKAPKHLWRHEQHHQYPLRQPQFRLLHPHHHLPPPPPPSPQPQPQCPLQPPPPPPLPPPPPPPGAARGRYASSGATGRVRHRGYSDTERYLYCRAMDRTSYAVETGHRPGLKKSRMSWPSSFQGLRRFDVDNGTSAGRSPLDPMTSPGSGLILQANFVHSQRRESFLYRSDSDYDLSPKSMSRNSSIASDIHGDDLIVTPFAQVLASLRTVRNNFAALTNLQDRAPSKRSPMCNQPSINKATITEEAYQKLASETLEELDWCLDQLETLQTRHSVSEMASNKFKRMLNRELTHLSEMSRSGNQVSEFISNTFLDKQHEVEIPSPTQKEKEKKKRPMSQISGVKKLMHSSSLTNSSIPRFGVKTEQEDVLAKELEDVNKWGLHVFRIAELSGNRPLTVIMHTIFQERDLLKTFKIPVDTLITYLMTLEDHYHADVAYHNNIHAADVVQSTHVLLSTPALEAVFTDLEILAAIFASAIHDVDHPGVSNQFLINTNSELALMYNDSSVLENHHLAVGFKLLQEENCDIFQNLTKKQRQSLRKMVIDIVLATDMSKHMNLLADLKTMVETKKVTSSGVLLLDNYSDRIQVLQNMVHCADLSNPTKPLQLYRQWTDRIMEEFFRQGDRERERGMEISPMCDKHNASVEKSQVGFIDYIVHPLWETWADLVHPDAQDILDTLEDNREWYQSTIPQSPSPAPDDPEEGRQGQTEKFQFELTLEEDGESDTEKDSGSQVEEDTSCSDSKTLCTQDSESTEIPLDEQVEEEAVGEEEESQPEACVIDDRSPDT
Vasopressin V2 receptor, sequence (P30518 whole entry): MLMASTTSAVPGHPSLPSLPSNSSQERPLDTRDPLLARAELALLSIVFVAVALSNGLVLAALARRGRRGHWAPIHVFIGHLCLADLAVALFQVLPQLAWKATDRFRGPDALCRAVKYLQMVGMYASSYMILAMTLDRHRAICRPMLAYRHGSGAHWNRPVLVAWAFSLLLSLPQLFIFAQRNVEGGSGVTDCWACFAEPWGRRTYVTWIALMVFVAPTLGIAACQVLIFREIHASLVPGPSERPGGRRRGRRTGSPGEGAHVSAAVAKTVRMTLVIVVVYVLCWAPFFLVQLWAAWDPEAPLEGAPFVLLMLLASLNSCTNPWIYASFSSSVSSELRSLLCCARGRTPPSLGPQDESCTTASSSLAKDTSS
Growth hormone secretagogue receptor type 1, sequence (Q92847 whole entry): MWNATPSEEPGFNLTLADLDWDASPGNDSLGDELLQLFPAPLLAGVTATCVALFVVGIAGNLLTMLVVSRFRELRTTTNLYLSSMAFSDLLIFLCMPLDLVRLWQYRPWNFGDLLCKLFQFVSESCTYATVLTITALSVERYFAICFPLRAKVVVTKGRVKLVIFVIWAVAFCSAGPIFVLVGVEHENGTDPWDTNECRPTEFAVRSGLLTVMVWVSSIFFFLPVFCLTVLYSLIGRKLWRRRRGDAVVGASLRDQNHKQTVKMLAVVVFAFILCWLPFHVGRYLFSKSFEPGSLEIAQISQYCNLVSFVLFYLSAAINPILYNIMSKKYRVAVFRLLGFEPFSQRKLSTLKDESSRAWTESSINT

On to `Cn1c(=O)c2c(ncn2CCOC(=O)C(C)(C)Oc2ccc(Cl)cc2)n(C)c1=O` [THEOFIBRATE], for which the AC50 (on Vasopressin V2 receptor; in [1]; in [2]; in assay [3]; in assay [4]; in assay [5]) was above 30 µM throughout. In addition, the AC50 in assay [6], in [7], in assay [8], in assay [9], in [10] and in [11] was above 30 µM throughout. Further, the AC50 in assay [12] and in assay [13] was above 30 µM throughout.

For the compound `COc1cc(C(=O)NC2CCCNC2)cc(OC)c1OC` (configuration not stated) [TROXIPIDE], the AC50 (at Vasopressin V2 receptor; in [1]; in assay [2]; in assay [3]; in assay [4]; in assay [5]) was above 30 µM in each case. Besides, the AC50 in assay [6], in [7], in [8], in [9], in [10] and in [11] was above 30 µM throughout. Also, the AC50 in [12] and in assay [13] was above 30 µM each time.

For the compound `CC(c1cc2ccccc2s1)N(O)C(N)=O` (configuration not stated) [ZILEUTON], the AC50 was above 10 µM on Vasopressin V2 receptor; above 10 µM in assay [1]; above 30 µM in [2]; above 10 µM in assay [3]; above 30 µM in assay [4]; above 10 µM in [5]. The AC50 in assay [6] was above 10 µM; in assay [7], above 10 µM; in assay [8] it was above 30 µM; in [9] it was above 10 µM; in assay [10], above 10 µM; in assay [11], above 10 µM. Moreover, the AC50 in assay [12] and in assay [13] was above 10 µM throughout.
